Data: ChEMBL document CHEMBL1201862, “PubChem BioAssay data set” (2004)
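Cells were grown in 96-well plates and exposed to each compound for 48 hours at five concentrations; endpoints were interpolated linearly between bracketing concentrations, or set to the highest concentration if not reached. Abbreviation: GI50, concentration required for 50% inhibition of growth.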 Active and inactive are the calls of the source. Rule as the data show it: active = GI50 up to about 1.1 µM and inactive = higher.

Legend:
Assay in all cases: growth of human tumour cells (NCI), 48 h
A498 = tested on: A498
A549 = tested on: A549
HCT-15 = tested on: HCT-15
M14 = tested on: M14
NCI-H23 = tested on: NCI-H23
NCI-H460 = tested on: NCI-H460
NCI-H522 = tested on: NCI-H522
OVCAR-3 = tested on: OVCAR-3
SF-295 = tested on: SF-295
SF-539 = tested on: SF-539
SK-MEL-5 = tested on: SK-MEL-5
SN12C = tested on: SN12C
SNB-19 = tested on: SNB-19
U-251 = tested on: U-251
UACC-62 = tested on: UACC-62
HCC 2998 = tested on: HCC 2998
NCI-H226 = tested on: NCI-H226

Structure (SMILES)	GI50 (A498)	GI50 (A549)	GI50 (HCT-15)	GI50 (M14)	GI50 (NCI-H23)	GI50 (NCI-H460)	GI50 (NCI-H522)	GI50 (OVCAR-3)	GI50 (SF-295)	GI50 (SF-539)	GI50 (SK-MEL-5)	GI50 (SN12C)	GI50 (SNB-19)	GI50 (U-251)	GI50 (UACC-62)	GI50 (HCC 2998)	GI50 (NCI-H226)
O=[N+]([O-])c1ccc(N=P(c2ccccc2)(c2ccccc2)c2ccccc2)n2nnnc12	> 100 µM (inactive)	40.6 µM (inactive)	> 100 µM	> 100 µM (inactive)	> 100 µM (inactive)	44.6 µM (inactive)	31 µM (inactive)	34.5 µM (inactive)	29 µM (inactive)	23 µM (inactive)	67 µM (inactive)	82.4 µM (inactive)	33.4 µM (inactive)	54.8 µM (inactive)	37.3 µM (inactive)		
C=C1C(=O)OC2C/C(C)=C/CC/C(C)=C/CCC3(COC(C)=O)OC3CC12 (centres undefined)	13.8 µM (inactive)	16.4 µM (inactive)	2.81 µM	6.15 µM (inactive)	11.8 µM (inactive)	12.7 µM (inactive)	1.51 µM (inactive)	6.19 µM (inactive)	15.3 µM (inactive)	2.85 µM (inactive)	14.9 µM (inactive)	15.6 µM (inactive)	16.5 µM (inactive)	11.2 µM (inactive)	11.8 µM (inactive)	8.85 µM (inactive)	
Cc1ccc(S(=O)(=O)NC(=O)C#CCOC2CCCCO2)cc1 (centres undefined)	> 100 µM (inactive)	> 100 µM (inactive)	> 100 µM	> 100 µM (inactive)	> 100 µM (inactive)	> 100 µM (inactive)		> 100 µM (inactive)	> 100 µM (inactive)	> 100 µM (inactive)	> 100 µM (inactive)	> 100 µM (inactive)	> 100 µM (inactive)	> 100 µM (inactive)	> 100 µM (inactive)	> 100 µM (inactive)	> 100 µM (inactive)
CC1=C(C(=O)NCc2ccccc2)C(/C=C/c2ccccc2)C(C(=O)NCc2ccccc2)=C(C)N1	> 100 µM (inactive)	> 100 µM (inactive)	> 100 µM	> 100 µM (inactive)	> 100 µM (inactive)	> 100 µM (inactive)		> 100 µM (inactive)	> 100 µM (inactive)	> 100 µM (inactive)	> 100 µM (inactive)	> 100 µM (inactive)	> 100 µM (inactive)		> 100 µM (inactive)	> 100 µM (inactive)	> 100 µM (inactive)
C#CC(C)(C)Oc1cc(O)c2c(=O)c3ccccc3n(C)c2c1	> 100 µM (inactive)	> 100 µM (inactive)	> 100 µM	> 100 µM (inactive)	> 100 µM (inactive)	24.5 µM (inactive)	> 100 µM (inactive)	> 100 µM (inactive)	> 100 µM (inactive)	15.5 µM (inactive)	> 100 µM (inactive)	> 100 µM (inactive)	> 100 µM (inactive)	42.1 µM (inactive)	> 100 µM (inactive)	77.4 µM (inactive)	> 100 µM (inactive)
COc1c(I)c(OC)c2c(c1I)O[C@@H]1OCC[C@H]21	28.4 µM (inactive)	34 µM (inactive)	35.6 µM	24.9 µM (inactive)	30.6 µM (inactive)	20.2 µM (inactive)		27.7 µM (inactive)	38.2 µM (inactive)	> 100 µM (inactive)	13.7 µM (inactive)	31.3 µM (inactive)	77.1 µM (inactive)	37.6 µM (inactive)	32.5 µM (inactive)	30.5 µM (inactive)	23.6 µM (inactive)
COc1cc(Nc2cnc3cc(C(F)(F)F)ccc3n2)cc(OC)c1OC		> 100 µM (inactive)	> 100 µM		> 100 µM (inactive)	> 100 µM (inactive)		> 100 µM (inactive)	> 100 µM (inactive)	> 100 µM (inactive)		> 100 µM (inactive)	> 100 µM (inactive)	> 100 µM (inactive)	> 100 µM (inactive)	> 100 µM (inactive)	> 100 µM (inactive)
C=C1CC2OC(=O)C(=C)C2C(O)C2C(=C)CCC12 (centres undefined)	0.31 µM (active)	14.4 µM (inactive)			12.6 µM (inactive)	14.7 µM (inactive)		10.1 µM (inactive)	10.9 µM (inactive)	3.69 µM (inactive)	12.2 µM (inactive)	5.73 µM (inactive)	16.2 µM (inactive)	16.8 µM (inactive)	3.48 µM (inactive)	10.2 µM (inactive)	20.4 µM (inactive)
O=C(Nc1ccccc1C(=O)NC(=O)c1ccccc1NC(=O)c1ccccc1)c1ccccc1	15.1 µM (inactive)	7.53 µM (inactive)	16.9 µM		4.57 µM (inactive)	7.71 µM (inactive)		3.29 µM (inactive)	10.8 µM (inactive)	5.09 µM (inactive)	2.9 µM (inactive)	4.51 µM (inactive)	7.36 µM (inactive)	3.49 µM (inactive)	2.07 µM (inactive)		
COC(=O)C(=C/c1ccc(OC)cc1)/C(C(=O)O)=C(/C)c1ccccc1	> 100 µM (inactive)	> 100 µM (inactive)	> 100 µM	> 100 µM (inactive)	> 100 µM (inactive)	> 100 µM (inactive)	> 100 µM (inactive)	> 100 µM (inactive)	> 100 µM (inactive)	> 100 µM (inactive)	> 100 µM (inactive)	> 100 µM (inactive)	> 100 µM (inactive)	> 100 µM (inactive)	> 100 µM (inactive)	> 100 µM (inactive)	> 100 µM (inactive)
O=C(c1ccccc1)c1nc2ccc(Cl)cc2c2c1Cc1ccccc1-2		> 100 µM (inactive)	> 100 µM	> 100 µM (inactive)	> 100 µM (inactive)		> 100 µM (inactive)	> 100 µM (inactive)	> 100 µM (inactive)	> 100 µM (inactive)	> 100 µM (inactive)	> 100 µM (inactive)	> 100 µM (inactive)	> 100 µM (inactive)	> 100 µM (inactive)	> 100 µM (inactive)	> 100 µM (inactive)
Cc1cc(Cl)ccc1NC(=O)CCCC(=O)C1C/C(=N/O)CC/C1=N\O (centres undefined)	> 100 µM (inactive)	> 100 µM (inactive)	> 100 µM	> 100 µM (inactive)	> 100 µM (inactive)	> 100 µM (inactive)	> 100 µM (inactive)	> 100 µM (inactive)	> 100 µM (inactive)	> 100 µM (inactive)	> 100 µM (inactive)	> 100 µM (inactive)	> 100 µM (inactive)	> 100 µM (inactive)	> 100 µM (inactive)	> 100 µM (inactive)	> 100 µM (inactive)
Cc1ccccc1-n1c(CCl)nc2ccc(Br)cc2c1=O	30.1 µM (inactive)	18.2 µM (inactive)	3.59 µM	0.679 µM (active)	9.91 µM (inactive)	13.5 µM (inactive)	2.28 µM (inactive)	14.2 µM (inactive)	11 µM (inactive)	7.16 µM (inactive)	8.17 µM (inactive)	0.434 µM (active)	26.7 µM (inactive)	13.2 µM (inactive)	4.4 µM (inactive)	16.8 µM (inactive)	8.87 µM (inactive)
CCCCOC(=O)NC(=O)c1cn(CCCOC(=O)CCCCCCCCC(=O)OCCCn2cc(C(=O)NC(=O)OCCCC)c(=O)[nH]c2=O)c(=O)[nH]c1=O		> 100 µM (inactive)	> 100 µM	> 100 µM (inactive)	> 100 µM (inactive)	> 100 µM (inactive)		> 100 µM (inactive)	> 100 µM (inactive)	> 100 µM (inactive)	> 100 µM (inactive)	> 100 µM (inactive)	> 100 µM (inactive)	> 100 µM (inactive)	> 100 µM (inactive)	> 100 µM (inactive)	> 100 µM (inactive)
COc1ccccc1NC(=O)NS(=O)(=O)c1ccccc1		> 100 µM (inactive)		> 100 µM (inactive)	> 100 µM (inactive)	> 100 µM (inactive)	63.7 µM (inactive)		> 100 µM (inactive)	> 100 µM (inactive)	> 100 µM (inactive)	> 100 µM (inactive)	> 100 µM (inactive)	> 100 µM (inactive)		> 100 µM (inactive)	87.1 µM (inactive)
COc1ccc2c(c1)[n+]([O-])c(/C(C)=N/NC(=O)c1ccccc1O)c(C)[n+]2[O-]		> 100 µM (inactive)	> 100 µM	> 100 µM (inactive)	> 100 µM (inactive)	> 100 µM (inactive)	> 100 µM (inactive)	> 100 µM (inactive)	> 100 µM (inactive)	> 100 µM (inactive)	> 100 µM (inactive)	> 100 µM (inactive)	> 100 µM (inactive)	> 100 µM (inactive)	> 100 µM (inactive)	> 100 µM (inactive)	> 100 µM (inactive)
CCOC(=O)C1C(c2ccc(Cl)cc2Cl)NC(c2ccc(C)cc2)C(C(=O)OC)S1(=O)=O (centres undefined)	> 100 µM (inactive)	37.8 µM (inactive)	59.2 µM	> 100 µM (inactive)	66.8 µM (inactive)	37.7 µM (inactive)	> 100 µM (inactive)	> 100 µM (inactive)	> 100 µM (inactive)	> 100 µM (inactive)	87.5 µM (inactive)		> 100 µM (inactive)	> 100 µM (inactive)	53.1 µM (inactive)	> 100 µM (inactive)	76.4 µM (inactive)
O=C1C2C3C=C4c5ccccc5N(c5ccccc5)C4([C@@H]2C(=O)N1c1ccc(F)cc1)[C@H]1C(=O)N(c2ccc(F)cc2)C(=O)[C@@H]31 (some centres undefined)		> 100 µM (inactive)	> 100 µM	> 100 µM (inactive)	> 100 µM (inactive)		> 100 µM (inactive)	> 100 µM (inactive)	> 100 µM (inactive)	> 100 µM (inactive)		82 µM (inactive)	> 100 µM (inactive)	> 100 µM (inactive)		> 100 µM (inactive)	> 100 µM (inactive)
